Like-named read-outs stand apart in the source and are kept apart here.

Details of data set [1]: method as in LoRusso et al 2005. The note with it: Phase I-II trial; ref LoRusso et al 2005; cited from earlier work.
Data set [2] is described as follows: Pharmacokinetics alone and in combination, selumetinib + temsirolimus arm. It is filed as in vivo, human. The note with it: for Cmax / AUC(0-t) / AUC(0–12): geometric mean (% CV); for AUC(0-t): read-out: AUC(0–8); for AUC(0–12): read-out: AUC(0–12); for tmax: median (range).
Description: PK parameters were derived using non-compartmental analysis. Cmax and tmax were determined by visual inspection of the plasma concentration-time profiles. AUC(0–12) was calculated by the linear trapezoidal rule. Where more than one maximum occurred, the reported value was assigned to the first occurrence.
On the set-up of data set [3]: method as in product label. The settings on record: ref product label; cited from earlier work.
Where [4] appears, read: human, plasma, iv, dosed alone, selumetinib 50 mg cohort (N = 25), temsirolimus 25 mg IV.
[5] abbreviates: human, plasma, iv, dosed alone, selumetinib 75 mg cohort (N = 6), temsirolimus 25 mg IV.
The mark [6] stands for this setting: human, plasma, iv, dosed in combination, selumetinib 50 mg BID (N = 22) + temsirolimus 25 mg IV.
Where [7] appears, read: human, plasma, iv, dosed in combination, selumetinib 75 mg BID (N = 5) + temsirolimus 25 mg IV.

With `O=C(NOC[C@H](O)CO)c1ccc(F)c(F)c1Nc1ccc(I)cc1F` [PD-0325901], the patients reporting rash in data set [1] was 49%.
With `CO[C@H]1C[C@@H]2CC[C@@H](C)[C@@](O)(O2)C(=O)C(=O)N2CCCC[C@H]2C(=O)O[C@H]([C@H](C)C[C@@H]2CC[C@@H](OC(=O)C(C)(CO)CO)[C@H](OC)C2)CC(=O)[C@H](C)/C=C(\C)[C@@H](O)[C@@H](OC)C(=O)[C@H](C)C[C@H](C)/C=C/C=C/C=C/1C` [Temsirolimus], the Cmax in data set [2] (dosed alone, selumetinib 75 mg cohort (N = 6), temsirolimus 25 mg IV) was 749.2 (24.61) [5] ng/mL; in data set [2] (human, plasma, iv, dosed alone, selumetinib 50 mg cohort (N = 25), temsirolimus 25 mg IV, read-out: Cmax), 669 ng/mL; in data set [2] (human, plasma, iv, dosed in combination, selumetinib 50 mg BID (N = 22) + temsirolimus 25 mg IV, read-out: Cmax) it was 651 ng/mL; in data set [2] (human, plasma, iv, dosed in combination, selumetinib 75 mg BID (N = 5) + temsirolimus 25 mg IV, read-out: Cmax) it was 695 ng/mL. In addition, the AUC(0-t) was 1580 ng·h/mL in data set [2] (setting [4]), 1740 ng·h/mL in data set [2] (setting [5]), 1460 ng·h/mL in data set [2] (setting [6]) and 1540 ng·h/mL in data set [2] (setting [7]). For the same compound, the AUC(0–12) in data set [2] (setting [4]) turned out to be 1880 ng·h/mL; in data set [2] (setting [5]) it was 1910 ng·h/mL; in data set [2] (setting [6]), 1610 ng·h/mL; in data set [2] (setting [7]), 1740 ng·h/mL. Also, the tmax in data set [2] (dosed in combination, selumetinib 50 mg BID (N = 22) + temsirolimus 25 mg IV) is 1.0 (0.5–1.5) h; in data set [2] (dosed in combination, selumetinib 75 mg BID (N = 5) + temsirolimus 25 mg IV), 0.5 (0.5–1.0) h. Besides, in data set [2] (selumetinib + temsirolimus arm), the “PK parameters when administered alone and in combination” value is “similar”. Moreover, the “most common (incidence ≥30%) adverse reactions” value in data set [3] is “rash, asthenia, mucositis, nausea, edema, and anorexia”.

Source of the values: publication PMC5613062 (Investigational New Drugs, 2017).
